Assay results: the NIST ThermoML archive (doi:10.1021/je500205z)
Numbers after ± are expanded uncertainties.

Tests used:
[1] = Maximal bubble pressure
[2] = an = ratio of the nth substance listed; settings: 293.15 K, Maximal bubble pressure

**Q.** What does the source list for `C=Cn1cc[n+](C(C)C(=O)OCC)c1.[Cl-]` (configuration not stated)?
**A.** surface tension liquid-gas ([1]; 293.15 K): 66.75 ± 0.77 mN/m; surface tension liquid-gas ([1]; 298.15 K): 63.9 ± 0.74 mN/m; surface tension liquid-gas ([1]; 303.15 K): 61.18 ± 0.71 mN/m; surface tension liquid-gas ([1]; 308.15 K): 58.46 ± 0.68 mN/m; surface tension liquid-gas ([1]; 313.15 K): 55.89 ± 0.65 mN/m; surface tension liquid-gas ([1]; 318.15 K): 53.02 ± 0.62 mN/m; surface tension liquid-gas ([1]; 323.15 K): 50.55 ± 0.59 mN/m; surface tension liquid-gas ([1]; 328.15 K): 48.14 ± 0.57 mN/m; surface tension liquid-gas ([1]; 333.15 K): 45.54 ± 0.54 mN/m

**Q.** Which surface tension liquid-gas ([1]; 293.15 K) does the source give for `C=C[n+]1ccn(CCCCCCCCCC)c1.[Br-]` [1-decyl-3-ethenylimidazolium bromide] here?
**A.** The surface tension liquid-gas was 53.48 ± 0.63 mN/m.

**Q.** And the surface tension liquid-gas ([1]; 298.15 K)?
**A.** Its surface tension liquid-gas is 50.63 ± 0.6 mN/m.

**Q.** What about the surface tension liquid-gas ([1]; 303.15 K) of the same compound?
**A.** The surface tension liquid-gas was 47.76 ± 0.56 mN/m.

**Q.** What about the surface tension liquid-gas ([1]; 308.15 K) of the same compound?
**A.** Its surface tension liquid-gas is 44.56 ± 0.53 mN/m.

**Q.** And the surface tension liquid-gas ([1]; 313.15 K)?
**A.** The surface tension liquid-gas was 41.8 ± 0.5 mN/m.

**Q.** What about the surface tension liquid-gas ([1]; 318.15 K) of the same compound?
**A.** The surface tension liquid-gas was 39.03 ± 0.47 mN/m.

**Q.** What about the surface tension liquid-gas ([1]; 323.15 K) of the same compound?
**A.** Its surface tension liquid-gas is 36.2 ± 0.44 mN/m.

**Q.** What about the surface tension liquid-gas ([1]; 328.15 K) of the same compound?
**A.** The surface tension liquid-gas was 33.77 ± 0.41 mN/m.

**Q.** What about the surface tension liquid-gas ([1]; 333.15 K) of the same compound?
**A.** The surface tension liquid-gas was 32.04 ± 0.39 mN/m.

**Q.** Which surface tension liquid-gas ([2]; a1 = 0.5403) does the source give for `C=C[n+]1ccn(CCCCCCCCCC)c1.[Br-]` [1-decyl-3-ethenylimidazolium bromide] + CC(C)=O here?
**A.** Its surface tension liquid-gas is 23.39 ± 0.38 mN/m.

**Q.** With `C=C[n+]1ccn(CCCCCCCCCC)c1.[Br-]` [1-decyl-3-ethenylimidazolium bromide] + CCO as the compound, how does the surface tension liquid-gas ([2]; a1 = 1.255) read?
**A.** The surface tension liquid-gas was 22.27 ± 0.36 mN/m.

**Q.** For `C=C[n+]1ccn(CCCCCCCCCC)c1.[Br-]` [1-decyl-3-ethenylimidazolium bromide] + ClC(Cl)Cl, which surface tension liquid-gas ([2]; a1 = 0.7667) is on record?
**A.** Its surface tension liquid-gas is 27 ± 0.43 mN/m.

**Q.** Which surface tension liquid-gas ([2]; a1 = 3.263) does the source give for `C=C[n+]1ccn(CCCCCCCCCC)c1.[Br-]` [1-decyl-3-ethenylimidazolium bromide] + O here?
**A.** The surface tension liquid-gas was 35.27 ± 0.37 mN/m.

**Q.** Which surface tension liquid-gas ([2]; a1 = 0.1035) does the source give for `C=C[n+]1ccn(CCCCCCCCCC)c1.[Br-]` [1-decyl-3-ethenylimidazolium bromide] + c1ccccc1 here?
**A.** The surface tension liquid-gas was 29.08 ± 0.46 mN/m.

**Q.** What does the source list for `C=Cn1cc[n+](CCCCCCCC)c1.[Br-]` [1-ethenyl-3-octylimidazolium bromide]?
**A.** surface tension liquid-gas ([1]; 293.15 K): 59.74 ± 0.7 mN/m; surface tension liquid-gas ([1]; 298.15 K): 56.82 ± 0.66 mN/m; surface tension liquid-gas ([1]; 303.15 K): 54.04 ± 0.63 mN/m; surface tension liquid-gas ([1]; 308.15 K): 51.22 ± 0.6 mN/m; surface tension liquid-gas ([1]; 313.15 K): 48.55 ± 0.57 mN/m; surface tension liquid-gas ([1]; 318.15 K): 45.79 ± 0.54 mN/m; surface tension liquid-gas ([1]; 323.15 K): 43.18 ± 0.51 mN/m; surface tension liquid-gas ([1]; 328.15 K): 40.6 ± 0.49 mN/m; surface tension liquid-gas ([1]; 333.15 K): 38.24 ± 0.46 mN/m

**Q.** With `C=Cn1cc[n+](CCCCCCCC)c1.[Br-]` [1-ethenyl-3-octylimidazolium bromide] + CC(C)=O as the compound, how does the surface tension liquid-gas ([2]; a1 = 0.5788) read?
**A.** The surface tension liquid-gas was 23.94 ± 0.39 mN/m.

**Q.** With `C=Cn1cc[n+](CCCCCCCC)c1.[Br-]` [1-ethenyl-3-octylimidazolium bromide] + CCO as the compound, how does the surface tension liquid-gas ([2]; a1 = 1.497) read?
**A.** Its surface tension liquid-gas is 23.07 ± 0.37 mN/m.

**Q.** For `C=Cn1cc[n+](CCCCCCCC)c1.[Br-]` [1-ethenyl-3-octylimidazolium bromide] + ClC(Cl)Cl, which surface tension liquid-gas ([2]; a1 = 0.6921) is on record?
**A.** The surface tension liquid-gas was 27.79 ± 0.44 mN/m.

**Q.** Which surface tension liquid-gas ([2]; a1 = 4.059) does the source give for `C=Cn1cc[n+](CCCCCCCC)c1.[Br-]` [1-ethenyl-3-octylimidazolium bromide] + O here?
**A.** Its surface tension liquid-gas is 38.86 ± 0.4 mN/m.

**Q.** For `C=Cn1cc[n+](CCCCCCCC)c1.[Br-]` [1-ethenyl-3-octylimidazolium bromide] + c1ccccc1, which surface tension liquid-gas ([2]; a1 = 0.08467) is on record?
**A.** Its surface tension liquid-gas is 29.32 ± 0.46 mN/m.

**Q.** Which results are given for `C=Cn1cc[n+](CCCCC)c1.[Br-]` [1-ethenyl-3-pentylimidazolium bromide]?
**A.** surface tension liquid-gas ([1]; 303.15 K): 67.08 ± 0.78 mN/m; surface tension liquid-gas ([1]; 308.15 K): 64.11 ± 0.74 mN/m; surface tension liquid-gas ([1]; 313.15 K): 61.08 ± 0.71 mN/m; surface tension liquid-gas ([1]; 318.15 K): 58.28 ± 0.68 mN/m; surface tension liquid-gas ([1]; 323.15 K): 55.53 ± 0.65 mN/m; surface tension liquid-gas ([1]; 328.15 K): 53.24 ± 0.62 mN/m; surface tension liquid-gas ([1]; 333.15 K): 50.59 ± 0.59 mN/m

**Q.** What does the source list for `C=Cn1cc[n+](CCCCCC)c1.[Br-]` [3-hexyl-1-vinyl-1H-imidazol-3-ium bromide]?
**A.** surface tension liquid-gas ([1]; 293.15 K): 62.29 ± 0.72 mN/m; surface tension liquid-gas ([1]; 298.15 K): 59.52 ± 0.69 mN/m; surface tension liquid-gas ([1]; 303.15 K): 56.81 ± 0.66 mN/m; surface tension liquid-gas ([1]; 308.15 K): 53.95 ± 0.63 mN/m; surface tension liquid-gas ([1]; 313.15 K): 51.15 ± 0.6 mN/m; surface tension liquid-gas ([1]; 318.15 K): 48.44 ± 0.57 mN/m; surface tension liquid-gas ([1]; 323.15 K): 45.67 ± 0.54 mN/m; surface tension liquid-gas ([1]; 328.15 K): 43.01 ± 0.51 mN/m; surface tension liquid-gas ([1]; 333.15 K): 40.4 ± 0.48 mN/m

**Q.** Which surface tension liquid-gas ([2]; a1 = 0.6455) does the source give for `C=Cn1cc[n+](CCCCCC)c1.[Br-]` [3-hexyl-1-vinyl-1H-imidazol-3-ium bromide] + CC(C)=O here?
**A.** Its surface tension liquid-gas is 24.3 ± 0.39 mN/m.

**Q.** For `C=Cn1cc[n+](CCCCCC)c1.[Br-]` [3-hexyl-1-vinyl-1H-imidazol-3-ium bromide] + CCO, which surface tension liquid-gas ([2]; a1 = 1.744) is on record?
**A.** Its surface tension liquid-gas is 25.16 ± 0.4 mN/m.

**Q.** With `C=Cn1cc[n+](CCCCCC)c1.[Br-]` [3-hexyl-1-vinyl-1H-imidazol-3-ium bromide] + ClC(Cl)Cl as the compound, how does the surface tension liquid-gas ([2]; a1 = 0.5682) read?
**A.** The surface tension liquid-gas was 27.94 ± 0.44 mN/m.

**Q.** With `C=Cn1cc[n+](CCCCCC)c1.[Br-]` [3-hexyl-1-vinyl-1H-imidazol-3-ium bromide] + O as the compound, how does the surface tension liquid-gas ([2]; a1 = 5.388) read?
**A.** Its surface tension liquid-gas is 46.87 ± 0.46 mN/m.

**Q.** With `C=Cn1cc[n+](CCCCCC)c1.[Br-]` [3-hexyl-1-vinyl-1H-imidazol-3-ium bromide] + c1ccccc1 as the compound, how does the surface tension liquid-gas ([2]; a1 = 0.02207) read?
**A.** The surface tension liquid-gas was 29.6 ± 0.46 mN/m.

**Q.** With `CC(C)=O` [acetone] as the compound, how does the surface tension liquid-gas ([1]; 293.15 K) read?
**A.** The surface tension liquid-gas was 23.7 ± 0.43 mN/m.

**Q.** With `c1ccccc1` [benzene] as the compound, how does the surface tension liquid-gas ([1]; 293.15 K) read?
**A.** Its surface tension liquid-gas is 28.18 ± 0.5 mN/m.

**Q.** For `CCO` [ethanol], which surface tension liquid-gas ([1]; 293.15 K) is on record?
**A.** The surface tension liquid-gas was 22.27 ± 0.41 mN/m.

**Q.** Which surface tension liquid-gas ([1]; 293.15 K) does the source give for `ClC(Cl)Cl` [trichloromethane] here?
**A.** Its surface tension liquid-gas is 27.14 ± 0.48 mN/m.
